The source of these data is patent US8063043B2, “Salts of N-[6-cis-2,6-dimethylmorpholin-4-yl)pyridine-3-yl]-2-methyl-4′-(trifluoromethoxy)[1,1′-biphenyl]-3-carboxamide” (Novartis AG, priority 2008, dated 2011).

This data set can be described thus: Rat PK of suspension formulations, free form vs diphosphate salt. It is filed as in vivo.
[1] abbreviates: 3.0 mg/kg PO dose in suspension, mean.
Setting [2] is: in vivo, 3.0 mg/kg PO dose in suspension, mean.
Setting [3] is: in vivo, IV 3 mg/kg, mean, n = 2.

Like-named read-outs stand apart in the source and are kept apart here.

In general, bioavailability refers to dose-corrected exposure relative to a reference, in per cent. As a reminder, the AUC(0-inf) is total exposure, with the tail of the curve extrapolated. In general, AUC(0-t) refers to exposure summed from dosing to a finite time, without extrapolation to infinity. As to `Cc1c(C(=O)Nc2ccc(N3C[C@@H](C)O[C@@H](C)C3)nc2)cccc1-c1ccc(OC(F)(F)F)cc1` [Free base], under setting [1], the AUCinf/dose was 171 nM·h/mg/kg, the AUClast/dose is 170 nM·h/mg/kg and the Cmax/Dose stood at 78.9 nM/mg/kg. Under “IV 3 mg/kg, mean, n = 2”, the AUCinf/dose amounted to 5840 nM·h/mg/kg and the AUClast/dose was 5830 nM·h/mg/kg. For the same molecule, for the setting “in vivo, 3.0 mg/kg PO dose in suspension”, the bioavailability is 3%. Also, under setting [2], the AUC(0-inf) was found to be 0.512 µM·h, the AUC(0-t) is 0.51 µM·h and the tmax was found to be 30 min. Moreover, the Cmax (in vivo, 3.0 mg/kg PO dose in suspension, mean, read-out: C0/Cmax) worked out at 0.237 µM. Further, under setting [3], the AUC(0-inf) is 17.5 µM·h and the AUC(0-t) stood at 17.5 µM·h. Also, the Cmax (in vivo, IV 3 mg/kg, mean, n = 2, read-out: C0/Cmax) worked out at 6.11 µM.
